The text below walks through data of patent publication EP4553077A1 (Kinoteck Therapeutics Co., Ltd, priority 2022, dated 2024).

One experiment deals with Ba/F3-TEL-FGFR2 (Homo sapiens, UniProt P21802+P41212). Briefly: Cell viability (proliferation inhibition) of Ba/F3 cells, CellTiter Glo. As to conditions: read-out: Ba/F3 cell FGFR2 (IC50 nM), 72 h. On the technique in general: Cellular ATP, detected with luciferase, serves as a proxy for viable cell number.
In the next experiment the target is Ba/F3-TEL-FGFR1 (Homo sapiens, UniProt P11362+P41212). Described as above. The note with it: read-out: Ba/F3 cell FGFR1 (IC50 nM), 72 h.
Ba/F3-TEL-FGFR1, sequence (P11362 478-767 limits assumed, one chain of several): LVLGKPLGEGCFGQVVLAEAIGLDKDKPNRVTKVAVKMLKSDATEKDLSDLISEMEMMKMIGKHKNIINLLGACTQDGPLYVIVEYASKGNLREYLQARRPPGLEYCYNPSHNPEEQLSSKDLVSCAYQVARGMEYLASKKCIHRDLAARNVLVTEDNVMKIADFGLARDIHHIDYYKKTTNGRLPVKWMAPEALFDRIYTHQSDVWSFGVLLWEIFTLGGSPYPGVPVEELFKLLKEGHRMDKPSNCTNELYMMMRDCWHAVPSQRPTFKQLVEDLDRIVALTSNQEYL

Ba/F3-TEL-FGFR2, sequence (P21802 481-770 limits assumed, one chain of several): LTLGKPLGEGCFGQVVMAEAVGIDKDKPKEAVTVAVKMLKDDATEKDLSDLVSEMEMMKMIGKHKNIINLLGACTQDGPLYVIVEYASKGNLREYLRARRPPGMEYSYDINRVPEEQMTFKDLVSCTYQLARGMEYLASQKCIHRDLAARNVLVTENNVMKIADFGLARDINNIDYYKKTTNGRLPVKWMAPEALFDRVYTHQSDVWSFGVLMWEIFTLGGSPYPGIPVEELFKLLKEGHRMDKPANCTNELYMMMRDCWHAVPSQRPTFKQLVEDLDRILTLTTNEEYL

For `C=C(C)C(=O)Nc1ccc(-c2c(-c3ccc(N=S4(=O)CCCC4)cc3)c3c(N)ncnc3n2C)cc1` [Compound 31], the IC50 at Ba/F3-TEL-FGFR2 turned out to be 8.3 nM; on Ba/F3-TEL-FGFR1 it was 2090 nM.

In the case of `C=C(C)C(=O)Nc1ccc(-c2c(-c3ccc(N=S4(=O)CCCC4)c(F)c3)c3c(N)ncnc3n2C)c(C(F)F)c1` [Compound 59, N-(4-(4-amino-5-(3-fluoro-4-((1-oxotetrahydro-1 λ^6-thiophene-1-ylidene)amino)phenyl) -7-methyl-7H-pyrrolo [2,3-d]pyrimidin-6-yl) -3-(difluoromethyl)phenyl) methacrylamide], the IC50 at Ba/F3-TEL-FGFR2 amounted to 7.8 nM; at Ba/F3-TEL-FGFR1, 1320 nM.

As to `C=C(C)C(=O)Nc1ccc(-c2c(-c3ccc(N=S4(=O)CCC4)c(F)c3)c3c(N)ncnc3n2C)c(C)c1` [Compound 70], the results for the IC50 on Ba/F3-TEL-FGFR2 and on Ba/F3-TEL-FGFR1 were 2.7 nM and 775 nM, respectively.

Take `C=C(C)C(=O)Nc1ccc(-c2c(-c3ccc(N=S4(=O)CCC4)c(F)c3)c3c(N)ncnc3n2C)c(F)c1` [Compound 75]: the IC50 on Ba/F3-TEL-FGFR2 is 0.8 nM; at Ba/F3-TEL-FGFR1, 701 nM.

Regarding `C=C(C)C(=O)Nc1ccc(-c2c(-c3cc(F)c(N=S4(=O)CCC4)cc3F)c3c(N)ncnc3n2C)c(F)c1` [Compound 77, N-(4-(4-amino-5-(2,5-difluoro-4-((1-oxo-1λ^6-thiocyclobutan-1-ylidene)amino)phenyl) -7-methyl-7H-pyrrolo [2,3-d]pyrimidin-6-yl) -3-fluorophenyl) methacrylamide], the results for the IC50 at Ba/F3-TEL-FGFR2 and at Ba/F3-TEL-FGFR1 were 4.7 nM and 884 nM, respectively.

Take `[2H]C([2H])([2H])n1c(-c2ccc(NC(=O)C(=C)C)cc2F)c(-c2ccc(N=S3(=O)CCCC3)c(Cl)c2)c2c(N)ncnc21` [Compound 82, N-(4-(4-amino-5-(3-chloro-4-((1-oxidetetrahydro-1λ^6-thiophene-1-ylidene)amino)phenyl)-7-(methyl-d3)-7H-pyrrolo[2,3-d]pyrimidin-6-yl)-3-fluorophenyl) methacrylamide]: the values for the IC50 at Ba/F3-TEL-FGFR2 and at Ba/F3-TEL-FGFR1 were 0.8 nM and 484 nM, respectively.

With `[2H]C([2H])([2H])n1c(-c2ccc(NC(=O)C(=C)C)cc2Cl)c(-c2ccc(N=S3(=O)CCC3)c(F)c2)c2c(N)ncnc21` [Compound 84, N-(4-(4-amino-5-(3-fluoro-4-(1-oxo-1λ^6-thietan-1-imino)phenyl)-7-(methyl-d3)-7H-pyrrolo[2,3-d]pyrimidin-6-yl)-3-chlorophenyl)methacrylamide], the IC50 at Ba/F3-TEL-FGFR2 was 0.8 nM; on Ba/F3-TEL-FGFR1, 250 nM.

Regarding `C=C(C)C(=O)Nc1ccc(-c2c(-c3ccc(N=S4(=O)CCCC4)c(C)c3)c3c(N)ncnc3n2C)c(F)c1` [Compound 87, N-(4-(4-amino-7-methyl-5-(3-methyl-4-((1-tetrahydro-1λ^6-thiophene-1-ylidene)amino)phenyl) -7H-pyrrolo [2,3-d]pyrimidin-6-yl) -3-fluorophenyl) methacrylamide], the IC50 stood at 2.1 nM at Ba/F3-TEL-FGFR2 and 666 nM at Ba/F3-TEL-FGFR1.

Consider `C=C(C)C(=O)Nc1ccc(-c2c(-c3ccc(N=S4(=O)CCCC4)c(C(F)F)c3)c3c(N)ncnc3n2C)c(F)c1` [Compound 89, N-(4-(4-amino-5-(3-(difluoromethyl) -4-((1-tetrahydro-1λ^6-thiophene-1-ylidene)amino)phenyl) -7-methyl-7H-pyrrolo [2,3-d]pyrimidin-6-yl) -3-fluorophenyl) methacrylamide], for which the IC50 at Ba/F3-TEL-FGFR2 was 6.5 nM; on Ba/F3-TEL-FGFR1, 686 nM.

Turning to `C=C(C)C(=O)Nc1ccc(-c2c(-c3ccc(N=S(=O)(C4CC4)C4CC4)cc3)c3c(N)ncnc3n2C)cc1` [Compound 93, N-(4-(4-amino-5-(4-((dicyclopropyl (oxo)-λ^6-sulfaneylidene)amino)phenyl)-7-methyl-7H-pyrrolo [2,3-d]pyrimidin-6-yl)phenyl) methacrylamide], at Ba/F3-TEL-FGFR2, the IC50 amounted to 31.7 nM.

Turning to `[2H]C([2H])([2H])n1c(-c2ccc(NC(=O)C(=C)C)cc2F)c(-c2ccc(N=S(C)(=O)c3ccccc3)c(F)c2)c2c(N)ncnc21` (centres unmarked) [Compound 96, N-(4-(4-amino-5-(3-fluoro-4-((methyl (oxo) (phenyl) - λ^6-sulfaneylidene)amino)phenyl) -7-(methyl-d3) -7H-pyrrolo [2,3-d]pyrimidin-6-yl) -3-fluorophenyl) methacrylamide], the IC50 on Ba/F3-TEL-FGFR2 was 29.8 nM.

Take `C=C(C)C(=O)Nc1ccc(-c2c(-c3ccc(N=S4(=O)CCC4)c(F)c3)c3c(N)ncnc3n2C)c(C)c1` [Compound 99]: the IC50 at Ba/F3-TEL-FGFR2 was determined as 2.7 nM.

For the compound `C=C(C)C(=O)Nc1ccc(-c2c(-c3ccc(N=S(=O)(CC)CC)c(F)c3)c3c(N)ncnc3n2C)c(C)c1` [Compound 101], the IC50 at Ba/F3-TEL-FGFR2 amounted to 4.7 nM.

As to `C=C(C)C(=O)Nc1ccc(-c2c(-c3ccc(N=S(=O)(CC)CC)cc3)c3c(N)ncnc3n2CC(F)(F)F)c(F)c1` [Compound 103], the IC50 on Ba/F3-TEL-FGFR2 was determined as 13.9 nM.

For the compound `C=C(C)C(=O)Nc1ccc(-c2c(-c3ccc(N=S4(=O)CCOCC4)cc3)c3c(N)ncnc3n2C)c(F)c1` [Compound 105], the IC50 at Ba/F3-TEL-FGFR2 was 20.9 nM.

For `C=C(C)C(=O)Nc1ccc(-c2c(-c3ccc(N=S4(=O)CC(C)(C)C4)c(F)c3)c3c(N)ncnc3n2C)c(F)c1` [Compound 106, N-(4-(4-amino-5-(4-((3,3-dimethyl-1-oxo-1 λ^6-thiocyclobutan-1-ylidene)amino) -3-fluorophenyl) -7-methyl-7H-pyrrolo [2,3-d]pyrimidin-6-yl) -3-fluorophenyl) methacrylamide], the IC50 at Ba/F3-TEL-FGFR2 stood at 2.2 nM.

Regarding `[2H]C([2H])([2H])n1c(-c2ccc(NC(=O)C(=C)C)cc2F)c(-c2ccc(N=S3(=O)C=CC(C)(C)C3)cc2)c2c(N)ncnc21` (centres unmarked) [Compound 108, N-(4-(4-amino-5-(4-((3,3-dimethyl-1-oxo-1 λ^6-thiophene-1-ylidene)amino)phenyl) -7-(methyl-d3) -7H-pyrrolo [2,3-d]pyrimidin-6-yl) -3-fluorophenyl) methacrylamide], the IC50 at Ba/F3-TEL-FGFR2 is 2.5 nM.

In the case of `C=CC(=O)Nc1ccc(-c2c(-c3ccc(N=S4(=O)CCCC4)cc3)c3c(N)ncnc3n2C)c(F)c1` [Compound 110], the IC50 at Ba/F3-TEL-FGFR2 worked out at 2 nM.

Regarding `C=C(F)C(=O)Nc1ccc(-c2c(-c3ccc(N=S4(=O)CCCC4)cc3)c3c(N)ncnc3n2C)c(F)c1` [Compound 111], the IC50 on Ba/F3-TEL-FGFR2 was under 0.15 nM.

For `CC#CC(=O)Nc1ccc(-c2c(-c3ccc(N=S4(=O)CCCC4)cc3)c3c(N)ncnc3n2C)c(F)c1` [Compound 112, N-(4-(4-amino-7-methyl-5-(4-((1-tetrahydro-1λ^6-thiophene-1-ylidene)amino)phenyl) -7H-pyrrolo [2,3-d]pyrimidin-6-yl) -3-fluorophenyl) but-2-ynamide], the IC50 on Ba/F3-TEL-FGFR2 was determined as 2 nM.

For the compound `[2H]c1cc(-c2c(-c3ccc(NC(=O)C(=C)C)cc3F)n(C)c3ncnc(N)c23)cc([2H])c1N=S1(=O)CCCC1` [Compound 113], at Ba/F3-TEL-FGFR2, the IC50 worked out at 1.8 nM.

With `[2H]c1c([2H])c(-c2c(-c3ccc(NC(=O)C(=C)C)cc3F)n(C)c3ncnc(N)c23)c([2H])c([2H])c1N=S1(=O)CCCC1` [Compound 114, N-(4-(4-amino-7-methyl-5-(4-((1-oxidetetrahydro-1 λ^6-thiophene-1-ylidene)amino)phenyl-2,3,5,6-d4) -7H-pyrrolo [2,3-d]pyrimidin-6-yl) -3-fluorophenyl) methacrylamide], at Ba/F3-TEL-FGFR2, the IC50 was 1.2 nM.

Consider “N- (4- (4-amino-5- (4- (cyclopentyl (methyl) (oxo) - λ^6-sulfanylidene) amino) phenyl) -7-methyl-7H-pyrrole [2,3-d] pyrimidin-6-yl) -3-fluorophenyl) methacrylamide [Compound 49]”, for which the IC50 on Ba/F3-TEL-FGFR2 stood at 12.8 nM.
